How the values were obtained:
Danio rerio = assay: Inhibition of BMPR in zebra fish embryo assessed as dorsalization administered 3 hr post fertilization
[1] = Induction of cardiogenesis in human embryonic stem cells assessed as as enrichment of pacemaker like cardiomyocytes (reference value: 21%); type: functional, Embryonic stem cell
[2] = Induction of cardiogenesis in mouse embryonic stem cells assessed as enrichment of pacemaker like cardiomyocytes by patch clamp technique (reference value: 7%); type: functional, Embryonic stem cell
[3] = Induction of cardiogenesis in mouse embryonic stem cells assessed as enrichment of atrial like cardiomyocytes by patch clamp technique (reference value: 7%); type: functional, Embryonic stem cell
[4] = Suppression of cardiogenesis in mouse embryonic stem cells assessed as ventricular like cardiomyocytes by patch clamp technique (reference value: 86%); type: functional, Embryonic stem cell
[5] = Induction of cardiogenesis in mouse CGR8 cells assessed as cardiac troponin positive cells measured on day 5 +10+2 EB-derived cells by flow cytometry analysis (reference value: 11%); type: functional
Activin receptor type-1 = biological target: T1, Activin receptor type-1 (Homo sapiens, UniProt Q04771); assay: Inhibition of human ALK2 in presence of (33P)gamma ATP
T1 sequence (Q04771 whole entry): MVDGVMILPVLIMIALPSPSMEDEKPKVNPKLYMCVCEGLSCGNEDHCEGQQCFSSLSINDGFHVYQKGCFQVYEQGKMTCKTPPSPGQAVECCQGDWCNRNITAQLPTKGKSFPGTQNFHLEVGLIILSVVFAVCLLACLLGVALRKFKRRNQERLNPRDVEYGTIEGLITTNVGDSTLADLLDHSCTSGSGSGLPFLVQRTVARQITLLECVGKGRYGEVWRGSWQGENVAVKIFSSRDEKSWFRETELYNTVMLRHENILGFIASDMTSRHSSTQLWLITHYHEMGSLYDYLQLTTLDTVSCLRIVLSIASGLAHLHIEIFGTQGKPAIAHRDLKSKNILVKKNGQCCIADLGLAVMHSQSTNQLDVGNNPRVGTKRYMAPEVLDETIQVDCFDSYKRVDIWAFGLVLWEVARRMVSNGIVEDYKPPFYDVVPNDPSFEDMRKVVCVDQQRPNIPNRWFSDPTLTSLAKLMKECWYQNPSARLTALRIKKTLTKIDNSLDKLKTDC

TGF-beta receptor type-1 = biological target: T2, TGF-beta receptor type-1 (Homo sapiens, UniProt P36897); assay: Inhibition of human ALK5 in presence of (33P)gamma ATP
T2 sequence (P36897 whole entry): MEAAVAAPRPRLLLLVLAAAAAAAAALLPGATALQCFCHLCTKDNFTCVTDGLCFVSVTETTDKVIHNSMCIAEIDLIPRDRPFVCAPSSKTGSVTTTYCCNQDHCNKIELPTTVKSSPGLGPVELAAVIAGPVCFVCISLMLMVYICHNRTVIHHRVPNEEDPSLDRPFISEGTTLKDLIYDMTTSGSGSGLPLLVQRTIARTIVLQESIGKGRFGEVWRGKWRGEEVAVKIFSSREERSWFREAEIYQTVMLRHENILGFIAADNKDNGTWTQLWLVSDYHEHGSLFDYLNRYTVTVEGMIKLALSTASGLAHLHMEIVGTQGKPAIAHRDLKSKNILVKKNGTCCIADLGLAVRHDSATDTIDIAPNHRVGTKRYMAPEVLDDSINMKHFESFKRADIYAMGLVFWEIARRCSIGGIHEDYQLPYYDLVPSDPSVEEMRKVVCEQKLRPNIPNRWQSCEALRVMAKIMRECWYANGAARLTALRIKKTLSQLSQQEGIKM

[6] = biological target: Vascular endothelial growth factor receptor 2 (Homo sapiens, UniProt P35968); assay: Inhibition of human KDR in presence of (33P)gamma ATP
Vascular endothelial growth factor receptor 2, sequence (P35968 whole entry): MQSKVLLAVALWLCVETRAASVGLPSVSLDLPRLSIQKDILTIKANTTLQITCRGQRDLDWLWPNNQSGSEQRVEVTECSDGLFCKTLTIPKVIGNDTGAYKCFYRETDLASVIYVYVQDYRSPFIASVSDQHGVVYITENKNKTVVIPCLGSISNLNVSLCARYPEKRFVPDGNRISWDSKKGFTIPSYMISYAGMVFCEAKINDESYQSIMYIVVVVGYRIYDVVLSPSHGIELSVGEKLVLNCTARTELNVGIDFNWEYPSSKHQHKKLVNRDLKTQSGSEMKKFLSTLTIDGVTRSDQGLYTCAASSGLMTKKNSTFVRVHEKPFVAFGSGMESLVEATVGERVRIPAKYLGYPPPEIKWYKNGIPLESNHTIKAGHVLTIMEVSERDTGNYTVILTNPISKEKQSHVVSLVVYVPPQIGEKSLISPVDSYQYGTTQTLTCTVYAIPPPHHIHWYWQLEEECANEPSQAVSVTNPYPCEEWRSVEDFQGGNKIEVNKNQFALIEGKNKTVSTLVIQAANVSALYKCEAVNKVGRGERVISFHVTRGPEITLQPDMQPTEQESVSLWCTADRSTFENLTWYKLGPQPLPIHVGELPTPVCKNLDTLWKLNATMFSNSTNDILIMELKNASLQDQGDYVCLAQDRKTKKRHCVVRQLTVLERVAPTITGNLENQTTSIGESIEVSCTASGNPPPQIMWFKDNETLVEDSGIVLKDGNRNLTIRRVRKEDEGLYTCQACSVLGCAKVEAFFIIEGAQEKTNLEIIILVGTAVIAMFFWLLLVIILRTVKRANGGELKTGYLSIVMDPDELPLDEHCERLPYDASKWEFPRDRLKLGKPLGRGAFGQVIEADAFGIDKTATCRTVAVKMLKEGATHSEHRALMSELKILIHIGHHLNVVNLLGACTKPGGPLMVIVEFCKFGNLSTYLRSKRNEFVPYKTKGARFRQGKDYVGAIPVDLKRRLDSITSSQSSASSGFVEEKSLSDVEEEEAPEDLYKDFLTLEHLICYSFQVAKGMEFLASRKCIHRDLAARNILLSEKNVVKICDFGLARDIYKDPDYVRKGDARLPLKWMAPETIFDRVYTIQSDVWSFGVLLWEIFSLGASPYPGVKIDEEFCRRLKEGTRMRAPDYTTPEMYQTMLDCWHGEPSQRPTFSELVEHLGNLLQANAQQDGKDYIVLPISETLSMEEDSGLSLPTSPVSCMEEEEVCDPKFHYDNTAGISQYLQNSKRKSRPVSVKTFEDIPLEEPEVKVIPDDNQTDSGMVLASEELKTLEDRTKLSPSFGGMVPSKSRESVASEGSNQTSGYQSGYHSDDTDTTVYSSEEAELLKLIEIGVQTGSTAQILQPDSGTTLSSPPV

[7] = Induction of cardiogenesis in human embryonic stem cells by DAPI staining based immunofluorescence method relative to control; type: functional, Embryonic stem cell

## c1ccc2c(-c3cnn4cc(-c5ccc(N6CCNCC6)cc5)cnc34)ccnc2c1
Danio rerio
  EC100: 3 µM

## COc1cc2ncnc(Nc3cccc(Cl)c3)c2cc1OC [TYRPHOSTIN AG-1478]
[1]
  Activity: 52%

## CCn1c(=O)[nH]c2ccccc21
[2]
  Activity: 58%
[3]
  Activity: 21%
[4]
  Activity: 21%
[5]
  Activity: 59%

## CC(C)Oc1ccc(-c2cnc3c(-c4ccnc5ccccc45)cnn3c2)cc1
Danio rerio
  EC100: 0.2 µM
Activin receptor type-1
  IC50: 100 nM

## c1cc(-c2cnn3cc(-c4ccc(OCCN5CCCCC5)cc4)cnc23)ccn1 [DORSOMORPHIN]
TGF-beta receptor type-1
  IC50: 10000 nM
[6]
  IC50: 220 nM
Danio rerio
  EC100: 2.5 µM

## C[S+]([O-])c1ccc(-c2nc(-c3ccc(F)cc3)c(-c3ccncc3)[nH]2)cc1 (configuration not stated) [SB-203580]
[7]
  fold change (FC): 2.5
